# Patent US20170042991A1, “COMPOSITIONS COMPRISING GLUTEN PEPTIDES AND USES THEREOF” (ImmusanT, Inc., priority 2014, published 2017)
# Non-standard residues stand in square brackets, D forms with d. pGlu = O=C1CC[C@@H](C(=O)O)N1
# Experiments:
# Type in all cases: cell-based, human
# whole blood [1] = test: 96-well plate whole blood multiplex cytokine release, IFNγ (MAGPIX bead assay, Example 2); conditions: Day-6, n = 8
# whole blood [2] = test: 96-well plate whole blood multiplex cytokine release, IP-10 (MAGPIX bead assay, Example 2); conditions: for IP-10 WB MAGPIX % max Mean: Day-6, n = 10; for Percent of maximal response, IP-10: after oral gluten challenge
# PBMC [3] = test: IFN-gamma ELISpot of PBMC, Day-6 after gluten challenge (Example 1); conditions: DQ2.5+ CD
# gluten-reactive T cells = test: Cytokine release assays taken together (IFNγ ELISpot, whole blood IFNγ and IP-10 release); conditions: three cytokine release assays
# Experimental: Gluten peptide solutions for addition to whole blood were arranged according to standardized templates in sterile 96-well U-bottom plates (30 μL/well). Plates were sealed with adhesive ELISA plate cover slips before the plastic lid was replaced and being frozen at −80° C. Whole blood assay (WBA) “medium” (1% DMSO in 90% PBS and 9% normal saline), mitogen (PHA-L, Sigma-Aldrich #L2769; St Louis Mo.) 100 μg/ml in WBA medium, and CEF diluted to 10 μg/ml in PBS with a final concentration of 1% DMSO were frozen separately in sterile cryovials. 96-well plates and cryovials with frozen incubation solutions were shipped on dry ice to the clinical site where blood was collected and incubations performed. Solutions were thawed at room temperature for 10 min just before being added to whole blood. 96-well plates were thawed while being centrifuged at 300 g to avoid surface condensation. A multi-channel pipette was used to efficiently transfer 25 μL of peptide solutions from the original 96-well plate to corresponding wells in a fresh sterile 96-well U-bottom plate. Once incubation solutions had been added, 225 μL of whole blood was added to each well and the plate transferred to incubate for 24 h at 37° C. 5% CO2. […] Individual peptides were incubated at a final assay concentration of 5 μM. Final concentrations of individual peptides assessed in P3 was 0.05-50 μg/mL, and in P14 and P13 pools 0.025-25 μM. The P71 pool was tested at between 0.005-10 μg/mL, the highest tested concentration being the maximal possible not exceeding 0.1% DMSO. Peptide pools, mitogen, and medium only were assessed in triplicate wells, and on Day-6 individual peptides were assessed in duplicate wells. Incubations were terminated after 24 h, and 96-well plates centrifuged at 300 g for 10 min. A total of approximately 90 to 120 μL of plasma was removed from each well taking care to avoid red cell contamination, and transferred into corresponding wells of two further 96-well plates (one with 30 μL/well and the residual in the second plate). Plasmas were frozen at −80° C. and later shipped on dry ice to the central lab where IP-10 and IFNγ multiplex bead assays were performed according to manufacturer's instructions using 25 μL plasma per well (Milliplex® MAP Human Cytokine/Chemokine Magnetic Bead Panel #HCYTOMAG-60k-02; EMD Millipore Corp., Billerica, Mass. 01821) and analysed with the Luminex® MAGPIX® System xPONENT® software (Luminex Corporation, Austin Tex. 78727). Plasma cytokine levels for each assay condition were expressed as the mean analyte concentration of each of the three replicate incubations. Laboratory staff were unaware of the arrangement of peptide solutions incubated with during assay setup and plate counting. […]
# PBMC [4] = test: Overnight IFNγ ELISpot assay with fresh PBMC (Example 2); conditions: Day-6, n = 5
# Experimental: Ten HLA-DQ2.5+ adults with celiac disease diagnosed according to the National Institutes of Health Consensus Statement 2004 were enrolled (Table 7).^22 Subjects were required to have followed gluten-free diet for at least one year and without known gluten exposures within the previous two-months. […] Full inclusion and exclusion criteria are described in Table 8. Each of 3 consecutive days subjects consumed 3 cookies that were prepared from approximately 4.5 g wheat gluten, 3 g barley flour protein, and 1.5 g rye flour protein. Blood was collected before and six days after commencing the oral challenge. Blood was collected using a 21G butterfly needle directly into 10 mL lithium heparin tubes (BD Vacutainer® Heparin tube #367880) and QuantiFERON® NIL (0591-0205, Cellestis Ltd., Chadstone VIC 3148 Australia) and QuantiFERON® MITOGEN (0593-0201, Cellestis Ltd.).
# Overnight IFNγ ELISpot assays (Human IFN-γ ELISpotPRO kit, transparent, ALP; Mabtech AB, #3420-2APT-10) were performed using PBMC freshly separated from heparinized blood diluted 1:1 in PBS with 2% fetal bovine serum (Stemcell Technologies #07905; Vancouver, BC, V5Z 1B3, Canada) overlaid on density gradient medium (Ficoll-Paque™ PLUS; GE Healthcare Lice Sciences #:17-1440-02) in SepMate™-50 tubes (Stemcell Technologies #15460). PBMC (8 million/mL) were resuspended in serum-free medium with gentamicin and phenol red (X-VIVO™15; Lonza, Walkersville Mass. 21793). PBMC (0.4 million/50 μL/well) and incubated with 50 μL 80% X-vivol5, 0.2% DMSO and 20% PBS in three triplicate wells (“medium only”), or with 50 μL PHA-L 20 μg/ml or peptide at 2× final concentration in 80% X-vivol5, 0.2% DMSO and 20% PBS. Peptide solutions to be added to individual ELISpot wells were prepared in 96-well U-bottom plates (60 μL/well) that were then sealed with adhesive ELISA plate cover slips before replacing the plastic lid and being frozen at −80° C. 96-well plates containing peptide solutions were thawed at room temperature for 10 min while being centrifuged at 300 g immediately prior to being added to ELISpot wells. Peptide pools and mitogen were assessed in triplicate wells, and individual peptides were assessed in duplicate wells. X-VIVO™15 (50 μL) was incubated with 80% X-vivol5, 0.2% DMSO and 20% PBS (50 μL) in triplicate wells (“no PBMC” control). A Zeiss automated ELISpot counter was used to determine spot forming units (SFU) per well (Zellnet Inc., Fort Lee, N.J. 07024). Laboratory staff were unaware of the arrangement of peptide solutions in ELISpot wells during assay setup and plate counting.
# [5] = Peptide 2 re-synthesised by Pepscan, 10 μg/mL (5.45 μM)
# [6] = individual peptides 5 μM, Peptide 2 = CSBio batch
substance,measurement,setting,value
"(pE)QPFPQPEQPFPWQP-amide ([pGlu]QPFPQPEQPFPWQP-NH2; SMILES NC(=O)CC[C@H](NC(=O)[C@H](Cc1c[nH]c2ccccc12)NC(=O)[C@@H]1CCCN1C(=O)[C@H](Cc1ccccc1)NC(=O)[C@@H]1CCCN1C(=O)[C@H](CCC(N)=O)NC(=O)[C@H](CCC(=O)O)NC(=O)[C@@H]1CCCN1C(=O)[C@H](CCC(N)=O)NC(=O)[C@@H]1CCCN1C(=O)[C@H](Cc1ccccc1)NC(=O)[C@@H]1CCCN1C(=O)[C@H](CCC(N)=O)NC(=O)[C@@H]1CCC(=O)N1)C(=O)N1CCC[C@H]1C(N)=O) [Peptide 2, CSBio and Pepscan batches tested separately]",IFNγ WB MAGPIX % max Mean,whole blood [1]; [5],27 % max
same,IFNγ WB MAGPIX % max Mean,whole blood [1]; [6],23 % max
same,IP-10 WB MAGPIX % max Mean,whole blood [2]; [5],49 % max
same,"Percent of maximal response, IP-10","whole blood [2]; Subject 3, Max. 9492 pg/mL",≥ 100 % of max
same,"Percent of maximal response, IP-10","whole blood [2]; Subject 4, Max. 9463 pg/mL",≥ 100 % of max
same,IP-10 WB MAGPIX % max Mean,whole blood [2]; [6],43 % max
same,Peptide-specific IFN-gamma ELISpot response,"PBMC [3]; Subject 1, 10 ug/ml",0 spot forming units per 0.8 million PBMC
same,Peptide-specific IFN-gamma ELISpot response,"PBMC [3]; Subject 2, 10 ug/ml",1 spot forming units per 0.8 million PBMC
same,Peptide-specific IFN-gamma ELISpot response,"PBMC [3]; Subject 3, 10 ug/ml",2 spot forming units per 0.8 million PBMC
same,Peptide-specific IFN-gamma ELISpot response,"PBMC [3]; Subject 4, 10 ug/ml",17 spot forming units per 0.8 million PBMC
same,Peptide-specific IFN-gamma ELISpot response,"PBMC [3]; Subject 5, 10 ug/ml",0 spot forming units per 0.8 million PBMC
same,Peptide-specific IFN-gamma ELISpot response,"PBMC [3]; Subject 6, 10 ug/ml",2 spot forming units per 0.8 million PBMC
same,Peptide-specific IFN-gamma ELISpot response,"PBMC [3]; Subject 7, 10 ug/ml",2 spot forming units per 0.8 million PBMC
same,Peptide-specific IFN-gamma ELISpot response,"PBMC [3]; Subject 8, 10 ug/ml",4 spot forming units per 0.8 million PBMC
same,Peptide-specific IFN-gamma ELISpot response,"PBMC [3]; Subject 9, 10 ug/ml",1 spot forming units per 0.8 million PBMC
same,Peptide-specific IFN-gamma ELISpot response,"PBMC [3]; Subject 10, 10 ug/ml",0 spot forming units per 0.8 million PBMC
same,activity as a fraction of that of Peptide 14,gluten-reactive T cells,one-half to one-fifth
same,IFNγ ELISpot % max Mean,PBMC [4]; [5],25 % max
same,IFNγ ELISpot % max Mean,PBMC [4]; [6],19 % max
